The text below walks through data of patent publication US20040137532A1, “Antibody competition test (act) for the qualitative and conformation dependent quantitative detection of the conformation changes of p-glycoprotein and other cell surface receptors, pumps and proteins, and uses thereof” (priority 2001, published 2004).

Like-named read-outs stand apart in the source and are kept apart here.

In this series the target is P-glycoprotein (Pgp) (Homo sapiens, UniProt P08183). Particulars: for conformation change which prevents binding of MM12.10 after UIC2 (efficient in ACT): cells pretreated with modulator/substrate, then UIC2, then FITC-MM12.10, KB-V1 and NIH 3T3 MDR1 cells. The procedure:
The cells were trypsinized as usual, washed twice with PBS (phosphate buffered saline, pH 7,4). 10^6 cells/1 ml PBS (plus 8 mM glucose), pre-incubated for 20 minutes at 37° C. with different drugs, modulators, and without washing the cells, the first (“A”) monoclonal antibody was added to the samples. After a further 30 minutes incubation (at 37° C.) an FITC or 5-sFx conjugated second (“B”) antibody was added to the samples (again without washing the cells), and were incubated at 37° C. for another 30 minutes. In case of the UIC2-shift test the cells were incubated with UIC2 antibody, washed twice, and incubated with goat anti-mouse IgG2a FITC conjugate (F/P=4,3, Sigma) on ice in 100 μl PBS for 45 minutes. The samples washed twice were resuspended in 500 μl PBS, and analyzed in flow cytometer. The antibody concentrations used were: 8 μg/ml MRK16, MC57, MM8.15, MM12.10 and 10 μg/ml UIC2. Daunorubicine (DNR) and calcein accumulation tests: see Goda, K. et al.: Practical guide to physical analysis of cell surface receptors, Ed.: Krasznai, Z. and Mátyus, L., pp. 110-125 (1998); Homolya, L., Holló, Zs., Germann, U. A., Pastan, L, Gottesman, M. M. and Sarkadi, B.: Fluorescent cellular indicators are extruded by the multidrug resistance protein. Journal of Biological Chemistry 268 21493-21496 (1993); Holló, Zs., Homolya, L., Davis, C. W. and Sarkadi, B.: Calcein accumulation as a fluorimetric functional assay of the multidrug trasporter. Biochimica et Biophysica Acta 1191 384-388 199420,21.
The average fluorescence intensities per cell were determined by Becton Dickinson FACScan (Mountain View, Calif.). Dead cells were excluded from the analysis by propidium-iodate staining. The fluorescence signals were plotted on logarithmic scale, the two-level analysis was carried out by BDIS CellQuest and FloWin softwares (SoftFlow Ltd., Pécs, Hungary).
The cells are then treated with the first (“A”) antibody (incubation with or without UIC2, MM8.1 or MC57) for 30 minutes, and the cells are labelled with FITC-MM12.10 (“B”) antibody The curves are flow cytometry histograms from representative measurement each. Continous line: control without “A”; bold line: “A”=UIC2; dotted line: “A”=MM8.15 (a-d) or MC57 (e-f). Binding of the “A” antibodies was verified in two independent experiments, with indirect immunfluorescence.
The ratio of average FITC MM12.10 fluorescence intensities, with and without UIC2 pretreatment give the Rcompetition values (black columns). Cells were pretreated for 20 minutes with reverting agents, and incubated for further 20 minutes with UIC2 antibody, finally the FITC-MM12.10 antibody was used (further 30 minutes incubation). Cells were not washed between the incubation steps. […] UIC2-shift was detected by indirect immunfluorescence; the white columns show the ratio of the average fluorescence intensities detected with and without the reverting treatments (Rshift). On the insert figure the same UIC2-shift data are plotted on magnified scale. The average of 4-6 independent measurements (±SEM) are shown.
ACT tests were carried out on NIH3T3 MDR1 cells, with different antibody combinations. Following UIC2 or MM12.10 (not conjugated with stain) pretreatment the cells are labelled with FITC or 5sFx conjugated MM12.10, UIC2, MRK16 and MM18.15 antibodies. Before adding the antibodies the cells are pretreated with CSA (grey columns) or not (black columns).

P-glycoprotein (Pgp), sequence (P08183 whole entry): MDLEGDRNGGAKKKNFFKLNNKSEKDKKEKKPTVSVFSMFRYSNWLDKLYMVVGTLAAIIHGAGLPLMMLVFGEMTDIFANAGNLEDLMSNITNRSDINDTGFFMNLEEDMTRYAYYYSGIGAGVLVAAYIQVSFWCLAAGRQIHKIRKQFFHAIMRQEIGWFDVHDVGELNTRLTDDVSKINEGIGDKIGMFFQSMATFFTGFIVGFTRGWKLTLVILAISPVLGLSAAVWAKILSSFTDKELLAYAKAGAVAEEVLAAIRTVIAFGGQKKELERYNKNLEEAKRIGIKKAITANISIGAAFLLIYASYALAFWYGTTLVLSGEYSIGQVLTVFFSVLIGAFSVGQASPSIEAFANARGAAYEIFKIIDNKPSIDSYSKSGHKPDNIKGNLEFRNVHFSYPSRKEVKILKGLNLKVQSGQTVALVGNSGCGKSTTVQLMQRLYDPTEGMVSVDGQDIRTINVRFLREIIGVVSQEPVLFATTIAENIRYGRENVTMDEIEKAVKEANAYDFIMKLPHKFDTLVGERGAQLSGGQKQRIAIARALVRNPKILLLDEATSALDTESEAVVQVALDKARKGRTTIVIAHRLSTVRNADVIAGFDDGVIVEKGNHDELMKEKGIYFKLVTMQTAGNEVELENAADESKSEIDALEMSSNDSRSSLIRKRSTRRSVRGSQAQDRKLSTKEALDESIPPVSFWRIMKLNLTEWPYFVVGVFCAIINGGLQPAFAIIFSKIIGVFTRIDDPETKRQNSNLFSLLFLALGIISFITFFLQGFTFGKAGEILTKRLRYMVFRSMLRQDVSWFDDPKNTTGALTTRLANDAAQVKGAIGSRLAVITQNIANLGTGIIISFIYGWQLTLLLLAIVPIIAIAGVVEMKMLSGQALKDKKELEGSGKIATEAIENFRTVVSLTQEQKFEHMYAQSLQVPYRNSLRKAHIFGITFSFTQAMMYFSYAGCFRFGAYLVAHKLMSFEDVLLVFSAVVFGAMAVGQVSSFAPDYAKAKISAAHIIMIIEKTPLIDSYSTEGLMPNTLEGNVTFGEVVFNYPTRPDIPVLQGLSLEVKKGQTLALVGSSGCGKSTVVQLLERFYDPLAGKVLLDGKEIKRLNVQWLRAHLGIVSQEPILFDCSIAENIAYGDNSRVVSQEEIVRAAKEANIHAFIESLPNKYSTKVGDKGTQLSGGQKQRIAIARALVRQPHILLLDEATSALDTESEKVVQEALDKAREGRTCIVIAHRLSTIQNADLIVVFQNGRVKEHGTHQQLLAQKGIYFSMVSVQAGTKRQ

As for `C/C=C/C[C@@H](C)C(=O)[C@H]1C(=O)N[C@@H](C(C)C)C(=O)N(C)CC(=O)N(C)[C@@H](CC(C)C)C(=O)N[C@@H](C(C)C)C(=O)N(C)[C@@H](CC(C)C)C(=O)N[C@@H](C)C(=O)N[C@H](C)C(=O)N(C)[C@@H](CC(C)C)C(=O)N(C)[C@@H](CC(C)C)C(=O)N(C)[C@@H](C(C)C)C(=O)N1C` [PSC 833], the “conformation change which prevents binding of MM12.10 after UIC2 (efficient in ACT)” value was “accomplishes the conformation change”.
Consider `CC[C@H]1/C=C/C=C/C[C@@H](C)[C@H](O)[C@@](C)(O)C(=O)[C@@H](C)[C@H](O)[C@@H](C)C(=O)[C@@H](C)[C@H](O)[C@@H](C)/C=C/C(=O)O[C@@H]2[C@H](C)[C@H](CC1)O[C@]1(CC[C@H](C)[C@H](C[C@@H](C)O)O1)[C@H]2C` [oligomicin], for which the “Rcompetition value in ACT after ATP depletion” value was “big”.
In the case of `CC(C)[C@@H]1NC(=O)[C@H](C)OC(=O)[C@@H](C(C)C)NC(=O)[C@@H](C(C)C)OC(=O)[C@H](C(C)C)NC(=O)[C@H](C)OC(=O)[C@@H](C(C)C)NC(=O)[C@@H](C(C)C)OC(=O)[C@H](C(C)C)NC(=O)[C@H](C)OC(=O)[C@@H](C(C)C)NC(=O)[C@@H](C(C)C)OC1=O` [valinomycine], the “conformation change which prevents binding of MM12.10 after UIC2 (efficient in ACT)” value is given as “accomplishes the conformation change”. The “conformation change which prevents binding of MM12.10 after UIC2 (efficient in ACT)” value (listed as valinomycin) is recorded as “efficient”.
As for gramicidin, the “conformation change which prevents binding of MM12.10 after UIC2 (efficient in ACT)” value was “doesn't”.
